Measured values published in article PMC2819003 (Angewandte Chemie (International ed. in English), 2010).

Biological target: T1, DPPS; decaprenyl diphosphate synthase (Homo sapiens, UniProt Q5T2R2)
T1 sequence (Q5T2R2 1-415): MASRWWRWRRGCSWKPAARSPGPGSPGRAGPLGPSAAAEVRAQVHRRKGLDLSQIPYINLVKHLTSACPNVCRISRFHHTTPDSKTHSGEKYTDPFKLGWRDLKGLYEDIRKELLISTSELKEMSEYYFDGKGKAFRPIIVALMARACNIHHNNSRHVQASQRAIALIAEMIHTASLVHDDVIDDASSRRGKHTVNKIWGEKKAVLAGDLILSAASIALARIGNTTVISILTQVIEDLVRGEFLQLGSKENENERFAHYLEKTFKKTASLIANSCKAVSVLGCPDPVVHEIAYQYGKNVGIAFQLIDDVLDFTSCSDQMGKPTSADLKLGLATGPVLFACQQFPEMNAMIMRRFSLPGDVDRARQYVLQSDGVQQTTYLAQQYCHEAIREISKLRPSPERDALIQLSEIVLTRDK
T1 sequence (Q86YH6 1-399 partner): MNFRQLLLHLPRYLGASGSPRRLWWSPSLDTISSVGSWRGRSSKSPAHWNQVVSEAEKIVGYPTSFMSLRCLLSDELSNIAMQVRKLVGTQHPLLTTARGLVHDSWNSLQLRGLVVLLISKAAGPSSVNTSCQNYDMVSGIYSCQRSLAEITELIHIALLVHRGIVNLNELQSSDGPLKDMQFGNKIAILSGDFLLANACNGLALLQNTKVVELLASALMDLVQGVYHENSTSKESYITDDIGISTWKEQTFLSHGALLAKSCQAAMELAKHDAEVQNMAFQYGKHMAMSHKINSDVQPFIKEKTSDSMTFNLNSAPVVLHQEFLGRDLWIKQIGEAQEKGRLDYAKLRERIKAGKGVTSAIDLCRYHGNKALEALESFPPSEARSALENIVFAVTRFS
Experiment: DPPS inhibition assay
Format: biochemical

An IC50 of 5.5 µM was found for `O=P(O)(O)C(O)(Cn1ccnc1)P(=O)(O)O` [zoledronate] in this work.
